According to patent US5840835A, “Inhibitors of peptide binding to MHC class II proteins” (Merck & Co., Inc., priority 1996, dated 1998):
Where two headings read alike, the source gives them in different places.

Target: T1, DR1Dw1 (Homo sapiens, UniProt P01903+P01911, A100R/D57E/F55L/F60I/F76Y/I96L/L162R/M171V/P40L/Q125E/R42F/V115G/Y59C)
T1 construct: these are Drosophila transmembrane DR; made in house
Test: Inhibition of biotinylated RMBP 90-102 peptide binding to MHC class II DR1 (europium-streptavidin capture assay)
Experimental: In studies optimizing the assay it was determined that only between 5 to 10% of the DR molecules are capable of binding added peptide. Therefore, the effective concentration of DR1Dw1 and DR4Dw4 was approximately 0.125 and 1.0 nM, respectively. […] The DR-peptide complexes (50 μL) are transferred to wells of a 96-well EIA plate precoated with LB3.1, the monoclonal antibody which recognizes the DR alleles of MHC Class II, and blocked with PBS with fetal calf serum (FCS). An additional 50 μL of 50 mM Tris, pH 7.0, containing 0.75% octyl glucoside is added to each well and the mixture incubated overnight at 4° C. Excess peptide is removed by washing with PBS containing 0.05% Tween 20 (Polyoxyethylene sorbitan monolaurate) and 0.01% NaN3. Europium-labeled streptavidin (Wallac Inc.) is added and incubated overnight. After washing, complexes are measured by the addition of Enhance™ buffer, the tradename for 0.1M acetate phthalate buffer, pH 3.2, containing 0.1% Triton X-100, tradename for polyoxyethylene ethers and other surface active compounds of Union Carbide Chemicals and Plastics Co., Inc. (particularly, a non-ionic surfactant for recovery of membrane components under non-denaturing conditions) 15 μM 2-naphthoyltrifluoroacetone, and 50 μM tri-N-octylphosphine oxide, which buffer releases the chelated europium from streptavidin and forms a highly fluorescent micellar solution. The resultant fluorescence is measured using a fluorescent plate reader (e.g., DELPHIA, Wallac, Inc.). The data are analyzed using a four-parameter logistical curve […] program (e.g., SigmaPlot) that calculates the concentration of biotinylated peptide giving a half-maximal signal (ED50).
The inhibition assay format is identical to the procedure described above with the exception that the unlabeled antagonist is serially diluted and incubated with constant concentrations of biotinylated RMBP 90-102 (0.3 nM for DR1Dw1 or 0.9 nM for DR4Dw4) and the MHC class II proteins. The concentration of unlabeled compound that prevents 50% of the labeled peptide from binding is the IC50 value. The concentration of the biotinylated RMBP 90-102 in each assay is experimentally determined to be […] one-sixth of its measured ED50 to assure the inhibition was primarily measuring the binding characteristics of the competitor.
In particular, a protocol for carrying out the inhibition assay is given below.
Preparation of antibody plate
Add 115 μL of 5 μg/mL LB3.1 in 50 mM Tris HCl pH 9.6/azide to each well of a Costar EIA plate. Incubate the plate overnight at 4° C.
Wash the plate 4 times with water/0.05% Tween-20/azide. Add 200 μL of PBS/5% FCS/azide for 1 hour at 4° C. to block the plate. The plate may be held at this point for later use or used immediately.
Flip out the block. It is not necessary to wash the plate. At 50 μL of load buffer (50 mM Tris HCl, pH 8.0 0.75% octylglucoside). Add to this volume 50 μL of the reaction mix from day 2, step 3 below.
Preparation of reaction mixture
(1) Add the following to a polypropylene round bottom 96-well plate such as a Costar #3794:
(A) Diluent (Ca Mg free PBS adjusted to pH 6.5 with 0.1M KH2 PO4 /0.75% octylglucoside/azide)0.81 μL
(B) Competitor at 16.6 times the final concentration in diluent or diluent alone 0.9 μL
(C) Biotinylated rat myelin basic protein (BRMBP) 90-102; 1.5 nM for DR1 or 4.5 nM for DR4 (These are 5×stocks of final concentrations of 0.3 nM/DR1 or 0.9 nM/DR4) 30 μL
(D) 6.25 nM DR1Dw1 or 50 nM DR4Dw4 (these are Drosophila transmembrane DR) (This is a 5×stock of the final concentration of 1.25 or 10 nM.) 30 μL Add the DR last and mix well at this time 150 μL
(2) Incubate at 37° C. for 20 min and 5 hours.
(3) Add 50 μL of this reaction mixture to one well of the blocked antibody plate from day 2 above.
(4) Incubate overnight at 4° C. to capture the DR-peptide complexes.
(5) Wash 4× with H2 O/0.05% Tween-20/azide […]

[1] = 20 min incubation at 37° C., 0.3 nM biotinylated RMBP 90-102, 1.25 nM DR1Dw1, pH 6.5, read-out: IC50 /nM @ 20 min
[2] = 5 hours incubation at 37° C., 0.3 nM biotinylated RMBP 90-102, 1.25 nM DR1Dw1, pH 6.5, read-out: IC50 /nM @ 5 Hrs

| Substance | IC50 [1] | IC50 [2] |
| --- | --- | --- |
| N-(3-CYCLOHEXYLPROPYL)-(L)(ε-NICOTINOYL)Lys Nva.psi.[E,CH=CH]Nle-NH2 TFA SALT [Example 7] | 409 nM | 2280 nM |
| EtOCO-(L)Cha (L)Lys Nva.psi.[(E,CH=CH]Leu-NH2 TFA SALT [Example 5] | 21 nM | 142 nM |
| α-(3-CYCLOHEXYLPROPYL)-(L)(3-PYRIDYL)Ala Nva.psi.[(E)CH=CH]Leu-NH2 TFA SALT [Example 9] | 2520 nM | 16600 nM |
| EtOCO-(L)Cha (L)Lys Nva.psi.[trans,cPr]Nle-NH2 TFA SALT [Example 6] | 616 nM | – |
| α-(3-CYCLOHEXYLPROPYL)-(L)(ε-NICOTINOYL)Lys Nva.psi.[(E)CH=CH]Leu-NH2 TFA SALT [Example 8] | 1050 nM | 5600 nM |
| EtOCO--(L)Cha(L)Lys Nva.psi.[E,CH=CH]Nle-NH2 TFA [Example 4] | 37 nM | 194 nM |
